Like-named read-outs stand apart in the source and are kept apart here.
Key:
CYP2C9 = CYP2C9 (Homo sapiens (Human), UniProt P11712); assay: Cytochrome P450 activity inhibition, CYP2C9; type: in vitro ADME; details: 10 μM, human liver microsomes, Diclofenac substrate
Text: (§1) 1) Cytochrome P450 (CYP450) Activity Inhibition Evaluation

CYP2D6 = CYP2D6 (Homo sapiens (Human), UniProt P10635); assay: Cytochrome P450 activity inhibition, CYP2D6; type: in vitro ADME; details: 10 μM, human liver microsomes, Dextromethorphan substrate
Text: as §1

CYP1A2 = CYP1A2 (Homo sapiens (Human), UniProt P05177); assay: Cytochrome P450 activity inhibition, CYP1A2; type: in vitro ADME; details: 10 μM, human liver microsomes, Phenacetin substrate
Text: as §1

hERG channel = hERG channel (Homo sapiens (Human), UniProt Q12809); details: read-out: hERG IC50; fluorescence polarization assay
ERRγ = type: cell-based
CYP3A4 = CYP3A4 (Homo sapiens (Human), UniProt P08684); assay: Cytochrome P450 activity inhibition, CYP3A4; type: in vitro ADME; details: 10 μM, human liver microsomes, Midazolam substrate
Text: as §1

[1] = biological target: GST-bound ER alpha ligand-binding domain (LBD) (Homo sapiens (Human), UniProt P03372); assay: biochemical
Procedure: (§2) The arylethene derivative of the present invention was sequentially added to a 384 well plate from a concentration of 10 μM to a final concentration of two-fold dilution. […] After all reagents were added, a reaction was carried out with gentle shaking at 20° C. for 1 hour, and after the reaction, a binding activity was measured by a TR-FRET method.

CYP2C19 = CYP2C19 (Homo sapiens (Human), UniProt P33261); assay: Cytochrome P450 activity inhibition, CYP2C19; type: in vitro ADME; details: 10 μM, human liver microsomes, S-mephenytoin substrate
Text: as §1

in vitro = in vitro ADME; details: PBS pH 7.4, 25° C., 5 hours
GST-bound ERR alpha LBD = GST-bound ERR alpha LBD (Homo sapiens (Human), UniProt P11474); details: TR-FRET, PGC1a coactivator; read-out: Binding Assay, IC50 ERRα
Procedure: as §2

[2] = 1 μM, 30 minutes, 37° C., NADPH
[3] = 1 μM, 30 minutes, 37° C., NADPH; remark: listed apart in the source
in vivo = type: in vivo; details: rat; for Cmax: read-out: Cmax
[4] = 1 μM, 30 minutes, 37° C., NADPH; remark: listed apart in the source
[5] = 1 μM, 30 minutes, 37° C., NADPH; remark: listed apart in the source
[6] = activity relative to reference compound GSK5182, 10 μM
[7] = TR-FRET, beta-estradiol 4 nM as agonist, read-out: Binding Assay, IC50 ERα

Sequence of CYP2D6 (P10635 whole entry): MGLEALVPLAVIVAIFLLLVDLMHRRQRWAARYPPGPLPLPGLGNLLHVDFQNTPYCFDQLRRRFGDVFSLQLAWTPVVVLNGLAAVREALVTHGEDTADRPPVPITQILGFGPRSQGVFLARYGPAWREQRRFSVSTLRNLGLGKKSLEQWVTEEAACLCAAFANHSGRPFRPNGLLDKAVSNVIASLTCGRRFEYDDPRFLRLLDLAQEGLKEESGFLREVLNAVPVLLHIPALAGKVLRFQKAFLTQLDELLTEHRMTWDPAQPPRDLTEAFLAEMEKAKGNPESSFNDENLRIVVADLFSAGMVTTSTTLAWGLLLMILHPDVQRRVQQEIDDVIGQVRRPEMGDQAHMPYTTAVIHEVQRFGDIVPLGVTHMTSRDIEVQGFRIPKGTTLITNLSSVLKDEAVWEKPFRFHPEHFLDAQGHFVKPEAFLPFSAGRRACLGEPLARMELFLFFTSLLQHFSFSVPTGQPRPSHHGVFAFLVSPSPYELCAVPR
Sequence of GST-bound ER alpha ligand-binding domain (LBD) (P03372 whole entry, looked up, the tested form may be a part): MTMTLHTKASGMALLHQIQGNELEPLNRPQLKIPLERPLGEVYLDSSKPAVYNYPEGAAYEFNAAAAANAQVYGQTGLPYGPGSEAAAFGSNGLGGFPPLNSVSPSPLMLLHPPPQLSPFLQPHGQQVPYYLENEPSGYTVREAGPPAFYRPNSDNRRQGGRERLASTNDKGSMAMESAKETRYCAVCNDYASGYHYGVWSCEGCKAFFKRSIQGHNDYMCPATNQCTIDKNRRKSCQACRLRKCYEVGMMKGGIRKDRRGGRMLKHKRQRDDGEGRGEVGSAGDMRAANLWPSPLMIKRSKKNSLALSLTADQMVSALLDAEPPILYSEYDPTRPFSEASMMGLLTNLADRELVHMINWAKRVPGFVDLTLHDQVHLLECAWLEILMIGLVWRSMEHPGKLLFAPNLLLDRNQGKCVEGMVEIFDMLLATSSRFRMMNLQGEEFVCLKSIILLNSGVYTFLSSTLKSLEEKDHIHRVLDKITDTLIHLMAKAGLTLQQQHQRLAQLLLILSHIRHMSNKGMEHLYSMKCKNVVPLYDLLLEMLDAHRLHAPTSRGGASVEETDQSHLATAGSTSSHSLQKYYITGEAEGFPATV
Sequence of CYP2C19 (P33261 whole entry): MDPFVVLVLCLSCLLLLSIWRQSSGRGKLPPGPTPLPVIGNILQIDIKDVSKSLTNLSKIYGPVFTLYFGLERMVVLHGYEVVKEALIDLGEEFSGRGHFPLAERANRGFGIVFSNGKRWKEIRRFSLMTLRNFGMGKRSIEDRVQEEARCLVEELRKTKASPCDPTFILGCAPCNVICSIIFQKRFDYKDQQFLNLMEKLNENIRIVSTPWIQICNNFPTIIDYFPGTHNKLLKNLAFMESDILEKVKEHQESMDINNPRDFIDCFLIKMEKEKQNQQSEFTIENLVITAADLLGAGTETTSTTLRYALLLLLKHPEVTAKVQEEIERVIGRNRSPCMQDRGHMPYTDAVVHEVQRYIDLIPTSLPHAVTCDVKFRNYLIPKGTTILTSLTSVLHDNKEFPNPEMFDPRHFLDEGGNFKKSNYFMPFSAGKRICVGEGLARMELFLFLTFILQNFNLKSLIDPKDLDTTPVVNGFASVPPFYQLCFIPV
Sequence of CYP2C9 (P11712 whole entry): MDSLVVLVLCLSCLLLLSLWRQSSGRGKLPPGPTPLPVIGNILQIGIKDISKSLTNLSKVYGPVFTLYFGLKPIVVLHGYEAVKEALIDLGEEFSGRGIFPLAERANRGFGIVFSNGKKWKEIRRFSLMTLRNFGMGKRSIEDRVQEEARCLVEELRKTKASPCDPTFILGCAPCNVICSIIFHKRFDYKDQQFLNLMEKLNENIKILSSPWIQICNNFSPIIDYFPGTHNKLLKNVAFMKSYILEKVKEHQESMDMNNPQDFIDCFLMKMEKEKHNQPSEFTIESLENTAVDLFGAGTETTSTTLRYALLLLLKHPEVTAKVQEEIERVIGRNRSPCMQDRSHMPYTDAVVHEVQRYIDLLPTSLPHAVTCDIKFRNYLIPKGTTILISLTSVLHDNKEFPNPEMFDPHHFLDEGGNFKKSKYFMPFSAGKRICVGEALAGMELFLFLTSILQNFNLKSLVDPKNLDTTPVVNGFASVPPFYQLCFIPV
Sequence of CYP1A2 (P05177 whole entry): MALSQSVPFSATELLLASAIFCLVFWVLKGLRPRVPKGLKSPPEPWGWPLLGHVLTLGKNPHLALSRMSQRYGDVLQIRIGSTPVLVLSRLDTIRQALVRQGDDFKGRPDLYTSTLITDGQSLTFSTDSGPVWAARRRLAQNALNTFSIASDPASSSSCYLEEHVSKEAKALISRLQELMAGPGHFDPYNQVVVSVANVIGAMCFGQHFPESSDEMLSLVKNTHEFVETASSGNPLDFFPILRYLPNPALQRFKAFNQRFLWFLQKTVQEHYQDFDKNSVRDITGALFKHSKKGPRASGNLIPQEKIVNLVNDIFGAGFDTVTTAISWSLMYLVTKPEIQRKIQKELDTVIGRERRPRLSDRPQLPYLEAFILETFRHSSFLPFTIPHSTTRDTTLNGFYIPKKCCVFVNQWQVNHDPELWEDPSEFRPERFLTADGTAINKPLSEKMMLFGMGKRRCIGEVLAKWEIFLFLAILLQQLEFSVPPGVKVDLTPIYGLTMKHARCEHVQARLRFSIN
Sequence of CYP3A4 (P08684 whole entry): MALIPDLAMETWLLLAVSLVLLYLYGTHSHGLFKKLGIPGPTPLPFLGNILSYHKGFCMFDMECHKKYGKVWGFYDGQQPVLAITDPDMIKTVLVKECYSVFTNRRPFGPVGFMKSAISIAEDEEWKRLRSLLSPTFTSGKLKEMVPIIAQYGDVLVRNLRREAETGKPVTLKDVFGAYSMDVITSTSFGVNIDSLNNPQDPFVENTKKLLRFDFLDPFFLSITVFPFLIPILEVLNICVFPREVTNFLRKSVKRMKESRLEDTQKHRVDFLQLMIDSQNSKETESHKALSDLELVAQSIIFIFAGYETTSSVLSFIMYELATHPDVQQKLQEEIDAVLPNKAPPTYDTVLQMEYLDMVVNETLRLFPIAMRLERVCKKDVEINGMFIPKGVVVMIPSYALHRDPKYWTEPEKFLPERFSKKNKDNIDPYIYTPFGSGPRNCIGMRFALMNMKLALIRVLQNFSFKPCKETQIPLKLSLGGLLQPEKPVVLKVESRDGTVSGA
Sequence of GST-bound ERR alpha LBD (P11474 193-421): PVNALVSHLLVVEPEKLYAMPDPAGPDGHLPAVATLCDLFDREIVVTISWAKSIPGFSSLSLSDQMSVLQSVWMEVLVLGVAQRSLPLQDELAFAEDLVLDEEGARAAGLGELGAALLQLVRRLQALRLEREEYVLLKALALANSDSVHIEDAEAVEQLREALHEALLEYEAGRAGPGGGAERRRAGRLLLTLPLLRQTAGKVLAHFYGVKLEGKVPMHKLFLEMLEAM

Row | SMILES | CYP inhibition (% of control) 2C9 (CYP2C9) | CYP inhibition (% of control) 2D6 (CYP2D6) | CYP inhibition (% of control) 1A2 (CYP1A2) | IC50 (hERG channel) [µM] | Functional Assay at 10 μM (% of control), Cpds (ERRγ; 10 μM, 24 hours, AD293) | Functional Assay, Cpds/Ref 5182 (ERRγ; [6]) | CYP inhibition (% of control) 3A4 (CYP3A4) | CYP inhibition (% of control) 2C19 (CYP2C19) | Permeability Pampa (in vitro) | MS(Microsomal Stability) (%) human [2] [%] | MS(Microsomal Stability) (%) rat [3] [%] | MS(Microsomal Stability) (%) mouse [4] [%] | MS(Microsomal Stability) (%) dog [5] [%] | other results
1 | CN1CCN(c2ccc(/C(=C(/CCCO)c3ccccc3)c3ccc(O)cc3)cc2)CC1 [Compound 18d] | 67.7 % of control | 98.4 % of control | 88 % of control | > 20 | 9.65 % of control | 0.97 | 64 % of control | 81.2 % of control | 0.14 10^−6 cm/s |  |  |  |  | IC50 [1, 7]: 1.7 µM; IC50 (GST-bound ERR alpha LBD): > 10 µM
2 | Cc1ccc(/C(=C(\CCCO)c2ccccc2)c2ccc(N3CCN(C)CC3)cc2)cc1 [Compound 18f] | 62.3 % of control | 68.2 % of control | >100 % of control | 18.9 | 2.57 % of control | 0.82 | 70.9 % of control | 72.8 % of control | 4.84 10^−6 cm/s | 79.2 | 65.7 | 47.6 |  | IC50 [1, 7]: > 10 µM; AUCINF (in vivo; IV, 1 mg/kg): 0.29 μMh; AUCall (in vivo; IV, 1 mg/kg): 0.28 μMh; Vss (in vivo; IV, 1 mg/kg): 30.3 L/kg; t1/2 (in vivo; IV, 1 mg/kg): 2.5 h; AUCINF (in vivo; PO, 10 mg/kg): 7.00 μMh; AUCall (in vivo; PO, 10 mg/kg): 2.93 μMh; BA (in vivo; PO, 10 mg/kg): 41.2%; Tmax (in vivo; PO, 10 mg/kg): 2.4 h; Cmax (in vivo; PO, 10 mg/kg): 450 nM; IC50 (GST-bound ERR alpha LBD): > 10 µM
3 | CN1CCN(c2ccc(/C(=C(/CCCO)c3ccccc3)c3ccc([N+](=O)[O-])cc3)cc2)CC1 [Compound 18c] | 81.7 % of control | 75.6 % of control | 92.2 % of control | 11.6 | 1.31 % of control | 0.42 | 64.1 % of control | 80 % of control | 5.73 10^−6 cm/s | 96.9 | 72.8 |  |  | 
4 | OCCC/C(=C(/c1ccc(C2CCN(C3CC3)CC2)cc1)c1cccc(O)c1)c1ccccc1 [Compound 22r] | >100 % of control | 91.8 % of control | >100 % of control | 16.4 |  |  | 82.7 % of control | >100 % of control |  | 62.0 | 49.9 | 24.5 | 56.9 | AUCINF (in vivo; IV, 1 mg/kg): 0.87 μMh; AUCall (in vivo; IV, 1 mg/kg): 0.85 μMh; Vss (in vivo; IV, 1 mg/kg): 4.6 L/kg; t1/2 (in vivo; IV, 1 mg/kg): 1.8 h; AUCINF (in vivo; PO, 10 mg/kg): 5.29 μMh; AUCall (in vivo; PO, 10 mg/kg): 4.93 μMh; BA (in vivo; PO, 10 mg/kg): 58.2%; Tmax (in vivo; PO, 10 mg/kg): 1 h; t1/2 (in vivo; PO, 10 mg/kg): 2.3 h; Cmax (in vivo; PO, 10 mg/kg): 1510 nM
5 | CC(C)N1CCN(c2ccc(/C(=C(/CCCO)c3ccccc3)c3ccc([N+](=O)[O-])cc3)cc2)CC1 [Compound 18g] |  |  |  | 17.9 | 1.62 % of control | 0.84 |  |  | 4.8 10^−6 cm/s | 87.9 | 85.3 | 84.1 | 84.9 | 
6 | OCCC/C(=C(\c1ccc(O)cc1)c1ccc(C2=CCN(C3CC3)CC2)cc1)c1ccccc1 [Compound 22j] | 88 % of control | 97.1 % of control | 95.7 % of control | 8.8 |  |  | 85 % of control | 89.6 % of control |  | 65.2 | 65.5 | 34.9 | 54.9 | 
7 | CN1CCC[C@H]1COc1ccc(/C(=C(/CCCO)c2ccccc2)c2ccc(O)cc2)cc1 [Compound 6h] |  |  |  | 18 |  |  |  |  |  |  |  |  |  | Functional Assay at 10 μM (% of control), Cpds (ERRγ): 5.49 % of control; Functional Assay, Cpds/Ref 5182 (ERRγ): 1.78; IC50 [1]: 1.1 µM
8 | OCCC/C(=C(\c1ccc(O)cc1)c1ccc(N2CCN(C3CCCC3)CC2)cc1)c1ccccc1 [Compound 22n] | 97.4 % of control | 82.6 % of control | 99 % of control | 14.6 | 3.47 % of control | 1.28 | 88.3 % of control | 83 % of control |  | 56.3 | 47.8 | 37.8 | 72.0 | 
9 | OCCC/C(=C(\c1ccc(O)cc1)c1ccc(C2CN(C3CC3)C2)cc1)c1ccccc1 [Compound 22d] | >100 % of control | 82.5 % of control | >100 % of control | 6 |  |  | 66.1 % of control | >100 % of control | 0.38 10^−6 cm/s | 57.6 | 60.2 |  |  | 

From patent US10934303B2, “Aryl ethene derivative and pharmaceutical composition containing same as active ingredient” (priority 2016, dated 2021)
